Experimental data as given in US4108991A, “N-aminosulfenyl derivatives of aldicarb” (priority 1976, dated 1978).

Assays:
Plum curculio = assay: Residual (7-day) contact activity, plum curculio; type: in vivo, Conotrachelus nenuphar [Herbst]; conditions: Conotrachelus nenuphar, 168 h, read-out: Percent Kill
Procedure: (§1) Initial Contact Activity: One half gram of test compound was dissolved in 40 ml of acetone and this solution was dispersed in 360 ml of water containing one drop of isooctylphenyl polyethoxyethanol. Aliquots of this solution, which corresponds to 1250 ppm of active ingredient, were diluted with an appropriate amount of water to provide solutions containing various concentrations of active ingredient. Test organisms and techniques were as follows: The activity against the Mexican bean beetle (Epilachna varivestis Muls.) and the southern armyworm (Spodoptera eridania [Cram.]) was evaluated by dipping the leaves of pinto bean plants into the test solution and infesting the leaves with the appropriate immature-form insects when the foiliage had dried; the activity against the pea aphid (Acyrthosiphon pisum [Harris]) was evaluated on broad bean plants whose leaves were dipped before infestation with adult aphids; the activity against two-sotted spider mites (Tetranychus urticae Koch) was evaluated on pinto bean plants whose leaves were dipped after infestation with adult mites; the activity against the milkweed bug (Oncopeltus fasciatus [Dallas]), and the plum curculio (Conotrachelus nenuphar [Herbst]) was evaluated by spraying the test solutions into glass dishes or jars containing the adult insects; the activity against the confused flour beetle (Tribolium confusum duVal) was evaluated by introducing the insects into glass dishes which had been previously sprayed with test solution and allowed to dry. All organisms in the test were maintained in a holding room at 80° F and 50% relative humidity for an exposure period of 48 hours. At the end of this time, the dead and living insects or mites were counted, and the percent kill was calculated.
(§2) Residual Contact Activity: The residual contact activity of the compounds was determined on the same organisms using the techniques described above, except that in each case the treated surface was allowed to dry and was exposed to normal light and air for seven days before introduction of the mites or insects.

Milkweed bug [1] = assay: Initial contact activity, spray, milkweed bug; type: in vivo, Oncopeltus fasciatus [Dallas]; conditions: Oncopeltus fasciatus, 48 h, initial, MWB, 48 hours, read-out: Percent Kill
Procedure: as §1

Southern armyworm [2] = assay: Initial contact activity, leaf dip, southern armyworm; type: in vivo, Spodoptera eridania [Cram.]; conditions: Spodoptera eridania, foliar, 48 h, initial, AW, 48 hours, read-out: Percent Kill
Procedure: as §1

Granary Weevil = assay: Initial contact activity, granary weevil; type: in vivo; conditions: Sitophilus granarius, 48 h, initial, GW, 48 hours, read-out: Percent Kill
Two-spotted spider mite [3] = assay: Initial contact activity, leaf dip, two-spotted spider mite; type: in vivo, Tetranychus urticae Koch; conditions: Tetranychus urticae, foliar, 48 h, initial, SM, 48 hours, read-out: Percent Kill
Procedure: as §1

Milkweed bug [4] = assay: Residual (7-day) contact activity, milkweed bug; type: in vivo, Oncopeltus fasciatus [Dallas]; conditions: Oncopeltus fasciatus, 168 h
Procedure: as §1, §2

Pea aphid [5] = assay: Residual (7-day) contact activity, pea aphid; type: in vivo, Acyrthosiphon pisum [Harris]; conditions: Acyrthosiphon pisum, 168 h
Procedure: as §1, §2

Southern armyworm [6] = assay: Residual (7-day) contact activity, southern armyworm; type: in vivo, Spodoptera eridania [Cram.]; conditions: Spodoptera eridania, 168 h
Procedure: as §1, §2

Mexican bean beetle = assay: Systemic activity, soil-watering, Mexican bean beetle; type: in vivo, Epilachna varivestis Muls.; conditions: Epilachna varivestis, 48 h, systemic, BB, read-out: Percent Kill
Procedure: as §1
(§3) Systemic Activity: Systemic activity was measured using a soil-watering technique. Test organisms were Mexican bean beetle, southern armyworm, pea aphid, and mites on plants as described above in this Example. With appropriate precautions to avoid contact of the solution with the test plant surfaces, 25 ml of a test solution, prepared as above to contain the desired amount of active ingredient, were poured evenly over the surface of the soil in which the plant was growing. The treated plants were maintained under normal growing conditions for three days to permit translocation of the toxicant, after which the leaves were infested. Two days after infestation, counts of living and dead insects were made.

Pea aphid [7] = assay: Initial contact activity, leaf dip, pea aphid; type: in vivo, Acyrthosiphon pisum [Harris]; conditions: Acyrthosiphon pisum, foliar, 48 h, initial, PA, 48 hours, read-out: Percent Kill
Procedure: as §1

Two-spotted spider mite [8] = assay: Systemic activity, soil-watering, two-spotted spider mite; type: in vivo, Tetranychus urticae Koch; conditions: Tetranychus urticae, 48 h, systemic, SM, read-out: Percent Kill
Procedure: as §1, §3

CSC(C)(C)C=NOC(=O)N(C)SN(C)C [Example IV, 2-Methyl-2-(methylthio)propanal O-[(dimethylaminosulfenyl)-(methyl)carbamoyl]oxime]
mortality at 625 ppm (Plum curculio): 0% | mortality at 1250 ppm (Plum curculio; residual 7-day, PC, 1250 PPM): 0% | mortality at 5 ppm (Milkweed bug [1]; 5 PPM): 20% | mortality at 10 ppm (Milkweed bug [1]; 10 PPM): 26% | mortality at 20 ppm (Milkweed bug [1]; 20 PPM): 43% | mortality at 1250 ppm (Milkweed bug [1]; 1250 PPM): 100% | mortality at 156 ppm (Southern armyworm [2]; 156 PPM): 0% | mortality at 312 ppm (Southern armyworm [2]; 312 PPM): 0% | mortality at 625 ppm (Southern armyworm [2]; 625 PPM): 0% | mortality at 1250 ppm (Southern armyworm [2]; 1250 PPM): 12% | mortality at 20 ppm (Granary Weevil; 20 PPM): 0% | mortality at 39 ppm (Granary Weevil; 39 PPM): 5% | mortality at 156 ppm (Granary Weevil; 156 PPM): 50% | mortality at 1250 ppm (Granary Weevil; 1250 PPM): 100% | mortality at 5 ppm (Two-spotted spider mite [3]; 5 PPM): 17% | mortality at 10 ppm (Two-spotted spider mite [3]; 10 PPM): 36% | mortality at 20 ppm (Two-spotted spider mite [3]; 20 PPM): 83% | mortality at 39 ppm (Two-spotted spider mite [3]; 39 PPM): 100% | mortality at 156 ppm (Two-spotted spider mite [3]; 156 PPM): 0% | mortality at 1250 ppm (Two-spotted spider mite [3]; 1250 PPM): 100% | mortality at 625 ppm (Milkweed bug [4]; read-out: Percent Kill, residual 7-day, MWB, 625 PPM): 100% | mortality at 312 ppm (Milkweed bug [4]; residual 7-day, MWB, 312 PPM, read-out: Percent Kill): 65% | mortality at 1250 ppm (Milkweed bug [4]; residual 7-day, MWB, 1250 PPM, read-out: Percent Kill): 100% | mortality at 625 ppm (Pea aphid [5]; read-out: Percent Kill, residual 7-day, PA, 625 PPM): 5% | mortality at 312 ppm (Pea aphid [5]; residual 7-day, PA, 312 PPM, read-out: Percent Kill): 10% | mortality at 1250 ppm (Pea aphid [5]; residual 7-day, PA, 1250 PPM, read-out: Percent Kill): 5% | mortality at 625 ppm (Southern armyworm [6]; read-out: Percent Kill, residual 7-day, AW, 625 PPM): 0% | mortality at 1250 ppm (Southern armyworm [6]; residual 7-day, AW, 1250 PPM, read-out: Percent Kill): 20% | mortality at 39 ppm (Mexican bean beetle; 39 PPM): 100% | mortality at 312 ppm (Mexican bean beetle; 312 PPM): 100% | mortality at 20 ppm (Pea aphid [7]; 20 PPM): 0% | mortality at 39 ppm (Pea aphid [7]; 39 PPM): 5% | mortality at 156 ppm (Pea aphid [7]; 156 PPM): 95% | mortality at 1250 ppm (Pea aphid [7]; 1250 PPM): 100% | mortality at 5 ppm (Two-spotted spider mite [8]; 5 PPM): 100% | mortality at 39 ppm (Two-spotted spider mite [8]; 39 PPM): 100% | mortality at 312 ppm (Two-spotted spider mite [8]; 312 PPM): 100%
